These results are taken from patent US5159081A, “Intermediates of peripherally selective N-carbonyl-3,4,4-trisubstituted piperidine opioid antagonists” (Eli Lilly and Company, priority 1991, dated 1992).

The Ki is the equilibrium dissociation constant of an inhibitor or competing ligand from its target.

The target of experiment [1] is T1, mu receptor (Rattus norvegicus, UniProt P33535).
T1 construct: The brain tissue, rat whole brain minus cerebellum for mu was homogenized; from tissue; host or cells: brain minus cerebellum of male Sprague Dawley rats, homogenate fraction
T1 sequence (P33535 whole entry): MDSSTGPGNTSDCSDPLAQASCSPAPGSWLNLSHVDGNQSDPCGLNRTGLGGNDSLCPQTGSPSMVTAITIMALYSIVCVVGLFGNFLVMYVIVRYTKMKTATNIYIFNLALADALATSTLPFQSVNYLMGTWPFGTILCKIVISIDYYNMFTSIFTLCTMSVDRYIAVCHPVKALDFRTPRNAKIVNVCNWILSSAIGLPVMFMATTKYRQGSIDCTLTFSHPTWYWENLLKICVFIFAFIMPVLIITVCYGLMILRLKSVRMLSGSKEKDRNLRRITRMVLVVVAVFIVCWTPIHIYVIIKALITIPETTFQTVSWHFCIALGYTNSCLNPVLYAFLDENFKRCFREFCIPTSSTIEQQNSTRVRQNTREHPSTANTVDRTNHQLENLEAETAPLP
Kind of experiment: Naloxone [3H] opioid receptor binding assay (mu receptor). On the set-up: species or system rat (male Sprague Dawley). To be noted: 20 min; for Ki: rat whole brain minus cerebellum, pH 7.4, 37° C., read-out: Ki.

In experiment [2] the test system is peripheral opioid receptors. The experiment can be described thus: mouse diarrhea test: precipitated diarrhea in morphine-maintained mice (peripheral opioid activity). In kind it is in vivo.
Experiment [3] has as its target peripheral opioid receptors (Mus musculus, UniProt P42866). The description is as above. In kind it is in vivo. The settings on record: mouse diarrhea test, morphine-maintained mice, subcutaneous or oral, 30 min observation.
Experiment [4] deals with T2, opioid receptor (Mus musculus, UniProt P42866).
T2 construct: Five CF-1 male mice (Charles River, Portage, MI); from tissue; host or cells: living CF-1 male mice (whole animal, endogenous receptor)
T2 sequence (P42866 whole entry): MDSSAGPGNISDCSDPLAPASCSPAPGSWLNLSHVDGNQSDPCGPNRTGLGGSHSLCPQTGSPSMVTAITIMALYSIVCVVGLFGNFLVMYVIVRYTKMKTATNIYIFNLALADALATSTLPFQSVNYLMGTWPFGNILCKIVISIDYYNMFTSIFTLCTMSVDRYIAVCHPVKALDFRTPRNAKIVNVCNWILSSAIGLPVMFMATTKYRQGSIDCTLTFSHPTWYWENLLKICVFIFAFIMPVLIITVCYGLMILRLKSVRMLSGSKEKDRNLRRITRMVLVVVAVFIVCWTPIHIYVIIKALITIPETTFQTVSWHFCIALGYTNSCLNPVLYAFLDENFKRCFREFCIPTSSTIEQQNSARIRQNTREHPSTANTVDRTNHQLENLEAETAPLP
Kind of experiment: in vivo. On the set-up: species or system CF-1 male mice. To be noted: sc.

The mark [5] stands for this setting: pH 7.4, read-out: % displacement at 10 nM.
Setting [6] is: pH 7.4, read-out: % displacement at 100 nM.
Where [7] appears, read: AD50 mouse writhing / ED50 mouse diarrhea, higher = greater relative peripheral antagonism.
The mark [8] stands for this setting: mouse writhing test, […], s.c. 20 min before acetic acid, read-out: AD50 (the source's name).
[9] abbreviates: pH 7.4, 10 nM test compound, [3H]naloxone 0.5 nM, mu receptor, read-out: % displacement at 10 nM.
Setting [10] is: pH 7.4, 100 nM test compound, [3H]naloxone 0.5 nM, mu receptor, read-out: % displacement at 100 nM.

Each structure is given as a SMILES string. Where a name gives a salt, the structure may show the parent alone. Read-outs that look alike come from different tables or passages of the source.

Chain of peripheral opioid receptors (Mus musculus, UniProt P42866) (P42866 whole entry): as above

On to `C[C@@H]1CN(C[C@@H](CC2CCCCC2)NC(=O)CCCC(=O)O)CC[C@]1(C)c1cccc(O)c1` [Example 48D], for which, in experiment [1] (setting [5]), the inhibition at 0.01 µM was 30%. The inhibition at 0.1 µM in experiment [1] (setting [6]) stood at 78%. Besides, the “Ratio (ratio of AD50 to ED50)” value in experiment [2] (setting [7]) is on record as more than 800. Moreover, the ED50 in experiment [3] was 0.05 mg/kg; in experiment [4] (setting [8]), more than 40 mg/kg.

Turning to `CC(=O)NC(CCCNC(=N)N[N+](=O)[O-])C(=O)NCCN1CCC(C)(c2cccc(O)c2)C(C)C1` (stereo not drawn) [Example 42, N-(2-(trans-4-(3-hydroxyphenyl)-3,4-dimethyl-1-piperidinyl)ethyl)-2-(acetylamino)-5-((imino(nitroamino)-methyl)amino)pentanamide monohydrate], the inhibition at 0.01 µM in experiment [1] (setting [9]) was determined as 44%. For the same compound, the inhibition at 0.1 µM in experiment [1] (setting [10]) is 89%. Besides, the “Ratio (ratio of AD50 to ED50)” value in experiment [2] (setting [7]) is listed as more than 160. Besides, the ED50 in experiment [3] (0.5 h, read-out: ED50) was 0.12 mg/kg; in experiment [4] (setting [8]), more than 20 mg/kg.

For the compound `COC(=O)CCCC(=O)N[C@@H](CC1CCCCC1)CN1CC[C@](C)(c2cccc(O)c2)[C@H](C)C1` [Example 49], in experiment [1] (setting [5]), the inhibition at 0.01 µM was found to be 83%. The inhibition at 0.1 µM in experiment [1] (setting [6]) was 97%. Besides, the Ki in experiment [1] ([3H]naloxone 0.5 nM) worked out at 8.19 nM. Moreover, the ED50 is more than 10 mg/kg in experiment [3] and 9.9 mg/kg in experiment [4] (setting [8]).

`C[C@H]1CN(C[C@@H](Cc2ccccc2)NC(=O)CC(=O)O)CC[C@@]1(C)c1cccc(O)c1` [Example 11, Trans-3-((2-(4-(3-hydroxyphenyl)-3,4-dimethyl-1-piperidinyl)-1-(D-(phenylmethyl)ethyl)amino))-3-oxopropionic acid]: the inhibition at 0.01 µM in experiment [1] (setting [9]) was 36%. The inhibition at 0.1 µM in experiment [1] (setting [10]) was determined as 80%. Further, the “Ratio (ratio of AD50 to ED50)” value in experiment [2] (setting [7]) worked out at 41. Besides, the ED50 in experiment [3] (0.5 h, read-out: ED50) was 0.3 mg/kg; in experiment [4] (setting [8]), 12.4 mg/kg.

`CC(C)COC(=O)CCCC(=O)N[C@@H](CC1CCCCC1)CN1CC[C@@](C)(c2cccc(O)c2)[C@@H](C)C1` [Example 56]: in experiment [1] (setting [9]), the inhibition at 0.01 µM came to 61%. For the same compound, the inhibition at 0.1 µM in experiment [1] (setting [10]) came to 92%. Besides, the “Ratio (ratio of AD50 to ED50)” value in experiment [2] (setting [7]) stood at 20000. Moreover, the ED50 in experiment [3] (0.5 h, read-out: ED50) is 0.002 mg/kg; in experiment [4] (setting [8]), more than 40 mg/kg.

As to `CC1CN(C[C@H](CC2CCCCC2)NC(=O)CCCC(=O)O)CCC1(C)c1cccc(O)c1` (single isomer, unassigned; (+)) [Example 16], the inhibition at 0.01 µM in experiment [1] (setting [5]) was 97%. In experiment [1] (setting [6]), the inhibition at 0.1 µM was 100%. Moreover, the inhibitory constant (Ki) in experiment [1] ([3H]naloxone 0.5 nM) was 0.96 nM. Further, in experiment [2] (setting [7]), the “Ratio (ratio of AD50 to ED50)” value is given as more than 166. For the same compound, the ED50 in experiment [3] is 0.12 mg/kg; in experiment [4] (setting [8]) it was more than 20 mg/kg.

With `CC(C)CN(CCCN1CC[C@@](C)(c2cccc(O)c2)[C@@H](C)C1)C(=O)CCCC(=O)O` (relative stereo) [Example 29, 5-(2-Methylpropyl-(3-(trans-4-(3-hydroxyphenyl)-3,4-dimethyl-1-piperidinyl)propyl)amino)-5-oxopentanoic acid monohydrate], the inhibition at 0.01 µM in experiment [1] (setting [9]) amounted to 56%. Also, the inhibition at 0.1 µM in experiment [1] (setting [10]) was determined as 88%. Besides, the “Ratio (ratio of AD50 to ED50)” value in experiment [2] (setting [7]) is 7.7. For the same compound, the ED50 in experiment [3] (0.5 h, read-out: ED50) amounted to 0.99 mg/kg; in experiment [4] (setting [8]), 7.6 mg/kg.

With `C[C@H]1CN(CC(Cc2ccccc2)NC(=O)CCCNC(=O)OC(C)(C)C)CC[C@@]1(C)c1cccc(O)c1` (stereo partly drawn) [Example 18, Trans-(4-((1-((4-(3-hydroxyphenyl)-3,4-dimethyl-1-piperidinyl)methyl)-2-phenylethyl)amino)-4-oxobutyl) carbamic acid, 1,1 dimethylethyl ester monohydrochloride], the inhibition at 0.01 µM in experiment [1] (setting [5]) turned out to be 86%. In experiment [1] (setting [6]), the inhibition at 0.1 µM was 100%. Also, the Ki in experiment [1] ([3H]naloxone 0.5 nM) amounted to 0.63 nM. Moreover, in experiment [2] (setting [7]), the “Ratio (ratio of AD50 to ED50)” value was found to be 4.5. For the same compound, the ED50 in experiment [3] amounted to 0.30 mg/kg; in experiment [4] (setting [8]), 1.31 mg/kg.

With `CC(C)COC(=O)CCCC(=O)N[C@@H](CC1CCCCC1)CN1CC[C@](C)(c2cccc(O)c2)[C@H](C)C1` [Example 55], the inhibition at 0.01 µM in experiment [1] (setting [9]) was 40%. Moreover, the inhibition at 0.1 µM in experiment [1] (setting [10]) is 86%. Also, the “Ratio (ratio of AD50 to ED50)” value in experiment [2] (setting [7]) is more than 800. Besides, the ED50 in experiment [3] (0.5 h, read-out: ED50) was 0.05 mg/kg; in experiment [4] (setting [8]), more than 40 mg/kg.

For the compound `COC1CCC(OC(=O)CCCC(=O)N[C@@H](CC2CCCCC2)CN2CC[C@@](C)(c3cccc(O)c3)[C@@H](C)C2)CC1` (stereo partly shown) [Example 68], the inhibition at 0.01 µM in experiment [1] (setting [9]) was 68%. Further, in experiment [1] (setting [10]), the inhibition at 0.1 µM worked out at 95%. Further, the “Ratio (ratio of AD50 to ED50)” value in experiment [2] (setting [7]) came out at 65. For the same compound, the ED50 is 0.29 mg/kg in experiment [3] (0.5 h, read-out: ED50) and 18.8 mg/kg in experiment [4] (setting [8]).

Take `CNC(=O)COC(=O)CCCC(=O)N[C@@H](CC1CCCCC1)CN1CC[C@@](C)(c2cccc(O)c2)[C@@H](C)C1` [Example 63]: the inhibition at 0.01 µM in experiment [1] (setting [5]) came to 87%. Moreover, the inhibition at 0.1 µM in experiment [1] (setting [6]) worked out at 99%. Further, the Ki in experiment [1] ([3H]naloxone 0.5 nM) was found to be 2.13 nM. In addition, the “Ratio (ratio of AD50 to ED50)” value in experiment [2] (setting [7]) is recorded as 4000. For the same compound, the ED50 in experiment [3] stood at 0.003 mg/kg; in experiment [4] (setting [8]), 12 mg/kg.

Turning to `C[C@H]1CN(CCCN(C(=O)CCCC(=O)O)C2CCCCC2)CC[C@@]1(C)c1cccc(O)c1` (relative stereo) [Example 25, 5-(cyclohexyl-(3-(trans-4-(3-hydroxyphenyl)-3,4-dimethyl-1-piperidinyl)propyl)amino)-5-oxopentanoic acid], in experiment [1] (setting [5]), the inhibition at 0.01 µM stood at 77%. For the same compound, in experiment [1] (setting [6]), the inhibition at 0.1 µM worked out at 93%. Further, the Ki in experiment [1] ([3H]naloxone 0.5 nM) turned out to be 1.18 nM. Moreover, the “Ratio (ratio of AD50 to ED50)” value in experiment [2] (setting [7]) came out at 10. For the same compound, the ED50 in experiment [4] (setting [8]) came out at 0.61 mg/kg.

As to `C[C@H]1CN(CCN(C(=O)CCCC(=O)O)c2ccccc2)CC[C@@]1(C)c1cccc(O)c1` (relative stereo) [Example 20, Trans-5-(phenyl-(2-(4-(3-hydroxyphenyl)-3,4-dimethyl-1-piperidinyl)ethyl)amino)-5-oxopentanoic acid monohydrate], the inhibition at 0.01 µM in experiment [1] (setting [5]) is 95%. Also, the inhibition at 0.1 µM in experiment [1] (setting [6]) came out at 99%. In addition, the “Ratio (ratio of AD50 to ED50)” value in experiment [2] (mouse, in vivo) amounted to 35. Besides, the ED50 in experiment [4] (mouse, read-out: AD50) amounted to 2.1 mg/kg.

Consider `C[C@H]1CN(CC(Cc2ccccc2)NC(=O)CCC(=O)O)CC[C@@]1(C)c1cccc(O)c1` (stereo partly shown) [Example 14], for which, in experiment [1] (setting [5]), the inhibition at 0.01 µM came out at 20%. For the same compound, the inhibition at 0.1 µM in experiment [1] (setting [6]) came out at 64%. In experiment [1] ([3H]naloxone 0.5 nM), the Ki was 32.4 nM. Also, in experiment [2] (setting [7]), the “Ratio (ratio of AD50 to ED50)” value came out at 656. For the same compound, in experiment [4] (setting [8]), the ED50 worked out at 21 mg/kg.

For the compound `CC(C)OC(=O)CCC(=O)N(CCN1CC[C@@](C)(c2cccc(O)c2)[C@@H](C)C1)C1CCCCC1` (relative stereo) [Example 30, 4-(Cyclohexyl-(2-(trans-4-(3-hydroxyphenyl)-3,4-dimethyl-1-piperidinyl)ethyl)amino)-4-oxobutanoic acid 1-methyl-ethyl ester], in experiment [1] (setting [5]), the inhibition at 0.01 µM is 79%. In addition, the inhibition at 0.1 µM in experiment [1] (setting [6]) was determined as 96%. Besides, the inhibition constant Ki in experiment [1] ([3H]naloxone 0.5 nM) was 11 nM. Further, the “Ratio (ratio of AD50 to ED50)” value in experiment [2] (setting [7]) was more than 40. The ED50 in experiment [4] (setting [8]) was found to be 12.4 mg/kg.

Turning to `CC(C)CC(=O)NCCCC(=O)N(CCN1CC[C@@](C)(c2cccc(O)c2)[C@@H](C)C1)C1CCCCC1` (relative stereo) [Example 40, hydrochloride], in experiment [1] (setting [5]), the inhibition at 0.01 µM worked out at 87%. Moreover, the inhibition at 0.1 µM in experiment [1] (setting [6]) stood at 100%. In experiment [1] ([3H]naloxone 0.5 nM), the Ki stood at 1.16 nM. Besides, in experiment [2] (mouse, in vivo), the “Ratio (ratio of AD50 to ED50)” value was 3. The ED50 in experiment [4] (setting [8]) amounted to 2.2 mg/kg.
